Source: US8435975B2, “Steroidal esters of 17-oximino-5-androsten-3beta-ol” (Council of Scientific & Industrial Research, priority 2007, dated 2013)
“And” between values parts separate entries of the source, which are not always exact repeats. Equal values may be shown once. “Also recorded” adds a separate entry of the source.

Assays:
5α-reductase = assay: In vivo effect on serum testosterone level (5α-reductase inhibitory activity), ELISA; parameters: species or system Sprague Dawley rats; conditions: for Serum levels of Testosterone, T: Sprague Dawley male rats, intraperitoneal, Finasteride 40 mg/kg and equimolar dose of compounds, 6 hr after treatment; for effect on serum testosterone level (in words): rats, 6 hr post dose, compared to control
Procedure: Animals (Sprague Dawley male rats weighing 150-200 g) were divided into 3 groups; vehicle (control), Finasteride (standard), treated (test sample) and each group consist of 5 animals. Sprague Dawley rats were treated intraperitoneally with Finasteride 40 mg/kg and equimolar dose of compounds. After 6 hr of treatment, blood was withdrawn by cardiac puncture under diethyl ether anesthesia and serum was separated from cells by centrifugation. Plasma testosterone values were obtained by ELISA plate reader at […] and are given in ng/ml.
The aliquots of 50 μl of each of standards, control and unknown (serum samples) were added to Testosterone Antibody coated wells. 100 μl of HRP-testosterone conjugate was added to all the wells and the plates were shaken gently on a shaker for proper mixing of the reagents. Following 4 hr of incubation at 37° C., the incubation mixture was removed. The wells were washed with phosphate buffer for 5-6 times (200 μl each time), followed by addition of 100 μl of TMB/H2O2 substrate in each of the wells. The plates were further incubated at 37° C. for 20 minutes. At the end of incubation reaction was stopped by using 100 μl of 0.5 M H2SO4 as stopping reagent. The absorbance of each well was read on Elisa plate reader at 450 nm [Rassaie, M. J.; Kumari, G. L.; Pandey, P. K.; Gupta, N.; Kochupillai, N.; Grover, P. K. Steroids 1992, 57, 288 and Hosoda, H.; Yoshida, H.; Sakai, Y.; Miyairi, S.; Nambara, T. Chem. Pharm. Bull. 1980, 28, 3035]
Intact male rats (Sprague Dawley, 200-250 g) were used in the designed study in which various compounds were compared for in vivo 5α-reductase inhibitory potency, as judged by the their ability to attenuate the conversion of testosterone into dihydrotestosterone (DHT). […] The procedure measure T equally well, and method met all the requirement of precision, accuracy, sensitivity and selectivity.

[1] = system: human prostate cancer cell line (DU-145); assay: Growth inhibitory activity assay (MTT assay), in vitro antiproliferative activity; assay type: cell-based; conditions: DU-145 cells; for % growth inhibition (mean ± SEM) / inhibition at 0.01 µg/mL / inhibition at 0.5 µg/mL / inhibition at 1 µg/mL / inhibition at 2 µg/mL / inhibition at 5 µg/mL: 48 hr; for antiproliferative activity (in words): 0.01-5.0 μg/ml; for inhibition at 0.01 µg/mL / inhibition at 0.5 µg/mL / inhibition at 1 µg/mL / inhibition at 2 µg/mL / inhibition at 5 µg/mL: Homo sapiens, DU-145, 48 h, read-out: % growth inhibition (mean ± SEM)
Procedure: 1) In Vitro Antiproliferative Activity Against Human Prostate Cancer Cell Line (DU-145)
Compounds were screened for antiproliferative activity on human prostate cell line DU-145 at National Centre of Human Genome Studies and Research. Panjab University, Chandigarh. All the compounds (10 to 16), Finasteride and starting material (9) were tested at five different concentrations: 0.01, 0.5, 1.0, 2.0, and 5.0 μg/ml. Finasteride was the positive control in this growth inhibitory assay.
Growth Inhibitory Activity Assay (MTT Assay)
We investigated the effect of newly synthesized compounds on cell growth inhibition using MTT assay. This assay quantifies the viable cells by observing the reduction of tetrazolium salt, MTT to formazan crystals by the live cells. Based on the absorbance of the cell sample after the test is carried out, cell viable can be measured [Loveland, B. E.; Jones, T. G.; Mackay. I. R.; Vaillant, F.; Wang, Z. X.; Hertzog, P. J. Biochem. International 1992, 27, 501 and Wright, S. A.; Thomas, L. N.; Douglas, R. C.; Lazier, C. B.; Rittmaster, R. S. J. Clin. Invest. 1996, 98, 2558]. Cells were cultured at a density of 5×10^3 cells/well in 96 well plates at 37° C. in 5.0% CO2 atmosphere and were allowed to attach for 24 hr. The cells were treated in triplicate with graded concentration of sample and reference drug Finasteride at 37° C. for 48 hr. A 20 μl aliquot of MTT solution was added directly to all the appropriate wells. Following 4 hr of incubation at […], the media was removed and formazan crystals, which results from the reduction of MTT by active cell were dissolved in 100 μl DMSO and vigorously mixed to dissolve the reacted dye. The absorbance of each well was read on Elisa plate reader (Merck) at 570 nm. The spectrometer was calibrated to zero absorbance using culture medium without cells. The relative cell viability (%) related to control well containing cell culture medium without drug was calculated by [A]test/[A]control×100. % Growth Inhibition=[OD]control−[OD]test/[OD]control×100 Results: […]

[2] = system: mouse macrophages (Balb C); assay: In vitro cytotoxicity using mouse macrophages (acute toxicity), MTT assay; assay type: cell-based
Procedure: (§1) All steroids were dissolved in ethanol and diluted to appropriate concentration: 0.01, 0.5, 1.0, 2.0, 5.0 μg/ml from the two stock solution of 1 mg/ml and […]. Stocks were maintained at room temperature.
(§2) […] Approximately 1 ml of Phosphate buffer saline preincubated at 37° C. was injected into cavity. The abdomen was lavaged for 10 min and fluid along with macrophages were taken out using a syringe into polypropylene tube. The phosphate solution was spun at 800 rpm for 5-10 min and cells were resuspended in 1 ml RPMI media. Cell number was counted using haemocytometer.
(§3) Cells (mouse macrophages) were plated at a density of 5×10^3 cells/well in 96 plate at 37° C. in 5% CO2. Cells were exposed in graded concentration of compounds at designated various concentration. Each concentration was tested in triplicate wells. After 48 hr fresh MTT 20 μl (1 mg/ml) was added directly to all the wells and culture was incubated for 4 hr at 37° C. During this incubation, MTT was converted into a water insoluble formazan complex by metabolic activity of viable cells. Formazan crystal were taken and dissolved in 100 μl of DMSO, which give light pink colour. The absorbance of each well was read on Elisa plate reader (Merck) at 570 nm. The spectrometer was calibrated to zero absorbance using culture medium without cells. The relative cell viability (%) related to control well containing cell culture medium without drug was calculated by [A]test/[A]control×100. % Cell Viability=[A]test/[A]control×100 [A]test=absorbance test sample [A]control=absorbance control sample Results: LC50: Concentration of the Compound in μg/ml (μm), Lethal to 50% Population of Cells.
(§4) The assay quantifies the viable cells, after […] incubation of cells with five different concentrations.

[3] = as above; assay type: cell-based; conditions: both sexes, Balb C; mouse macrophages, from linear equation of MTT data; read-out: LC50 (concentration lethal to 50% population of cells)
Procedure: as §1, §2, §3, §4

[4] = both, Balb C, mouse, 48 h, 0.01 μg/ml
[5] = both, Balb C, mouse, 48 h, 0.5 μg/ml
[6] = both, Balb C, mouse, 48 h, 1 μg/ml
[7] = both, Balb C, mouse, 48 h, 2 μg/ml
[8] = both, Balb C, mouse, 48 h, 5 μg/ml

SMILES	Serum levels of Testosterone, T (5α-reductase)	effect on serum testosterone level (in words) (5α-reductase)	% growth inhibition (mean ± SEM) ([1]; 5.0 μg/ml)	antiproliferative activity (in words) [1]	inhibition at 0.01 µg/mL ([1]; 0.01 μg/ml)	inhibition at 0.5 µg/mL ([1]; 0.5 μg/ml)	inhibition at 1 µg/mL ([1]; 1.0 μg/ml)	inhibition at 2 µg/mL ([1]; 2.0 μg/ml)	inhibition at 5 µg/mL ([1]; 5.0 μg/ml)	% viable Cells (mean ± SEM) [2, 4]	% viable Cells (mean ± SEM) [2, 5]	% viable Cells (mean ± SEM) [2, 6]	% viable Cells (mean ± SEM) [2, 7]	% viable Cells (mean ± SEM) [2, 8]	CC50 at 48 h [3]	also measured
C[C@]12CC[C@H](OC(=O)c3ccc(Cl)cc3)CC1=CC[C@@H]1[C@@H]2CC[C@]2(C)C(=NO)CC[C@@H]12 [Compound 10, 17-oximino-5-androsten-3β-yl 4-chlorobenzoate]	0.95 ng/mL	loss of activity	84.47 ± 0.74%	relatively less activity than above compounds but still better than Finasteride	43.4 ± 0.77%	57.1 ± 5.96%	64.9 ± 7.4%	69.2 ± 7.48%	81 to 84%	88.22 ± 0.41%	87.21 ± 0.46%	77.40 ± 0.43%	77.14 ± 0.21%	73.149 ± 0.13%	24 µM	–
C[C@]12CC[C@H](OC(=O)c3ccc([N+](=O)[O-])cc3)CC1=CC[C@@H]1[C@@H]2CC[C@]2(C)C(=NO)CC[C@@H]12 [Compound 11, 17-oximino-5-androsten-3β-yl 4-nitrobenzoate]	1.01 ng/mL	loss of activity	81.53 ± 1.79%	relatively less activity than above compounds but still better than Finasteride	41.5 ± 0.71%	60.5 ± 4.9%	67.3 ± 3.7%	74 ± 0.77%	81 to 84%	88.79 ± 0.19%	86.50 ± 0.107%	76.74 ± 0.107%	76.30 ± 0.46%	75.85 ± 0.259%	19.5 µM	–
Cc1ccc(C(=O)O[C@H]2CC[C@@]3(C)C(=CC[C@@H]4[C@@H]3CC[C@]3(C)C(=NO)CC[C@@H]43)C2)cc1 [Compound 12, 17-oximino-5-androsten-3β-yl 4-methylbenzoate]	1.16 ng/mL	increased activity	92.94 ± 0.13%	more potent than the reference Finasteride	42.6 ± 2.21%	63 ± 4.78%	85 ± 3.99%	89.5 ± 0.96%	> 90%	79.39 ± 0.77%	77.46 ± 0.75%	73.03 ± 0.36%	69.10 ± 0.84%	65.26 ± 2.79%	22 µM	–
C[C@]12CC[C@H](OC(=O)c3ccccc3)CC1=CC[C@@H]1[C@@H]2CC[C@]2(C)C(=NO)CC[C@@H]12 [Compound 13, 17-oximino-5-androsten-3β-yl benzoate]	1.05 ± 0.08 ng/mL and 1.05 ng/mL	–	91.10 ± 2.10%	more potent than the reference Finasteride	47 ± 1.67%	48.9 ± 1.66%	67.6 ± 1.62%	85.9 ± 4.08%	> 90%	–	–	–	–	–	89.4 µM	% viable Cells (mean ± SEM) ([2]; mouse macrophages, 0.01 μg/ml): 87.71 ± 0.29%; % viable Cells (mean ± SEM) ([2]; mouse macrophages, 0.5 μg/ml): 84.74 ± 0.27%; % viable Cells (mean ± SEM) ([2]; mouse macrophages, 1.0 μg/ml): 83.61 ± 0.20%; % viable Cells (mean ± SEM) ([2]; mouse macrophages, 2.0 μg/ml): 83.85 ± 0.28%; % viable Cells (mean ± SEM) ([2]; mouse macrophages, 5.0 μg/ml): 82.99 ± 0.36%; toxicity to mouse macrophages (in words) ([2]; mouse macrophages, 0.01-5.0 μg/ml): non toxic to mouse macrophages
C[C@]12CC[C@H](OC(=O)c3ccc(N)cc3)CC1=CC[C@@H]1[C@@H]2CC[C@]2(C)C(=NO)CC[C@@H]12 [Compound 14, 17-oximino-5-androsten-3β-yl 4-aminobenzoate]	1.19 ng/mL	increased activity	91.02 ± 1.25%	more potent than the reference Finasteride	71.8 ± 4.24%	62.1 ± 11.4%	79.5 ± 7.76%	83.9 ± 6.7%	> 90%	85.75 ± 0.28%	77.69 ± 0.38%	76.80 ± 0.23%	75.82 ± 0.33%	72.82 ± 0.28%	29.4 µM	–
C[C@]12CC[C@H](O)CC1=CC[C@@H]1[C@@H]2CC[C@]2(C)C(=NO)CC[C@@H]12 [Parent Compound 9, 17-oximino-5-androsten-3β-ol]	–	–	Ni^a	not shown any significant inhibitory effect on cell proliferation; also recorded: not shown significant antiproliferative activity	–	–	–	–	–	–	–	–	–	–	–	% growth inhibition (mean ± SEM) ([1]; 0.01 μg/ml): Ni^a; % growth inhibition (mean ± SEM) ([1]; 0.5 μg/ml): Ni^a; % growth inhibition (mean ± SEM) ([1]; 1.0 μg/ml): Ni^a; % growth inhibition (mean ± SEM) ([1]; 2.0 μg/ml): Ni^a
